Results published in US11999728B2, “Estrogen receptor modulators” (Recurium IP Holdings, LLC, priority 2020, dated 2024).
pIC50: −log10 of the molar value.

test system: MCF7; test: Breast Cancer Cell Proliferation Assay (MCF-7), Cell Titer-Glo; assay type: cell-based; details: Homo sapiens, MCF7, 120 h, MCF7 cells, 5 days of compound exposure
Description: Breast Cancer Cell Proliferation Assay (MCF-7)
MCF7 was expanded and maintained in the medium (Phenol red free DMEM/F12 (Hyclone SH30272.01) NEAA (Gibco11140-050) Na-pyruvate (Gibco 11360-070) and Re-stripped Charcoal stripped FBS (Gemini 100-119)). The cells were adjusted to a concentration of 3,000 cells per mL in the above media, and the cells were incubated (37° C., 5% CO2). The following day a 10-point, serial dilution of compounds was added to the cells at a final concentration ranging from 10-0.000005 μM for test compounds (17β-estradiol was used as a control). Additional cells were plated in 30 wells to serve as the day 1 (pretreatment) comparison. After 5 days of compound exposure, Cell Titer-Glo reagent was added to the cells and the relative luminescence units (RLUs) of each well was determined. Cell Titer-Glo was also added to 32 μL of medium without cells to obtain a background value. The plates were allowed to incubate at room temperature for 10 minutes to stabilize luminescent signal and the luminescence signal was recorded with EnSpire. The relative increase in cell number of each sample is determined as follows: (RLU sample-RLU background/RLU estrogen only treated cells-RLU background)×100=% inhibition.

Structure (SMILES) | pIC50
C#CCN1CC(Nc2ccc([C@@H]3c4[nH]c5ccccc5c4C[C@@H](C)N3C34CC(C3)C4)cc2)C1 [Compound 65, N-(4-((1R,3R)-2-(bicyclo[1.1.1]pentan-1-yl)-3-methyl-2,3,4,9-tetrahydro-1H-pyrido[3,4-b]indol-1-yl)phenyl)-1-(prop-2-yn-1-yl)azetidin-3-amine] | ≥ 7.60
C[C@@H]1Cc2c([nH]c3ccccc23)[C@@H](c2ccc(N[C@H]3CCN(CCCF)C3)cn2)N1C12CC(C1)C2 [Compound 55, 6-((1S,3R)-2-(bicyclo[1.1.1]pentan-1-yl)-3-methyl-2,3,4,9-tetrahydro-1H-pyrido[3,4-b]indol-1-yl)-N—((S)-1-(3-fluoropropyl)pyrrolidin-3-yl)pyridin-3-amine] | ≤ 6.60
C[C@@H]1Cc2c([nH]c3ccccc23)[C@@H](c2cnc(NC3CN(CCCF)C3)nc2)N1C12CC(C1)C2 [Compound 57, 5-((1R,3R)-2-(bicyclo[1.1.1]pentan-1-yl)-3-methyl-2,3,4,9-tetrahydro-1H-pyrido[3,4-b]indol-1-yl)-N-(1-(3-fluoropropyl)azetidin-3-yl)pyrimidin-2-amine] | 6.60 to 7.60
C=CCN1CC(Nc2ccc([C@@H]3c4[nH]c5ccccc5c4C[C@@H](C)N3C34CC(C3)C4)cc2)C1 [Compound 64, 1-allyl-N-(4-((1R,3R)-2-(bicyclo[1.1.1]pentan-1-yl)-3-methyl-2,3,4,9-tetrahydro-1H-pyrido[3,4-b]indol-1-yl)phenyl)azetidin-3-amine] | ≥ 7.60
C[C@@H]1Cc2c([nH]c3ccccc23)[C@@H](c2ccc(N[C@@H]3CN(CCCF)C[C@@H]3F)cc2)N1C12CC(C1)C2 (single isomer, unassigned) [Compound 73] | ≥ 7.60
C[C@@H]1Cc2c([nH]c3ccccc23)[C@@H](c2ccc(OCCN3CC(CF)C3)cc2F)N1C12CC(C1)C2 [Compound 25, (1R,3R)-2-(bicyclo[1.1.1]pentan-1-yl)-1-(2-fluoro-4-(2-(3-(fluoromethyl)azetidin-1-yl)ethoxy)phenyl)-3-methyl-2,3,4,9-tetrahydro-1H-pyrido[3,4-b]indole] | ≥ 7.60
C[C@@H]1Cc2c([nH]c3ccccc23)[C@@H](c2ccc(O[C@H]3CCN(CCCF)C3)cn2)N1C12CC(C1)C2 (single isomer, unassigned) [Compound 12] | 6.60 to 7.60
C[C@@H]1Cc2c([nH]c3ccccc23)[C@@H](c2ncc(OC3CN(CCCF)C3)cn2)N1C12CC(C1)C2 [Compound 61, (1S,3R)-2-(bicyclo[1.1.1]pentan-1-yl)-1-(5-((1-(3-fluoropropyl)azetidin-3-yl)oxy)pyrimidin-2-yl)-3-methyl-2,3,4,9-tetrahydro-1H-pyrido[3,4-b]indole] | ≤ 6.60
C[C@@H]1Cc2c([nH]c3ccccc23)[C@@H](c2c(F)cc(O[C@@H]3CCN(CCCF)C3)cc2F)N1C12CC(C(N)=O)(C1)C2 (single isomer, unassigned) [Compound 34] | 6.60 to 7.60
C[C@@H]1Cc2c([nH]c3ccccc23)[C@@H](c2ccc(N[C@H]3CCN(CCCF)C3)nc2)N1C12CC(C1)C2 [Compound 20, 5-((1R,3R)-2-(bicyclo[1.1.1]pentan-1-yl)-3-methyl-2,3,4,9-tetrahydro-1H-pyrido[3,4-b]indol-1-yl)-N—((S)-1-(3-fluoropropyl)pyrrolidin-3-yl)pyridin-2-amine] | ≥ 7.60
C[C@H]1Cc2c([nH]c3ccccc23)[C@H](c2c(F)cc(NC3CN(CCCF)C3)cc2F)N1C12CC(CO)(C1)C2 (single isomer, unassigned) [Compound 17] | ≤ 6.60
C[C@@H]1Cc2c([nH]c3ccccc23)[C@@H](c2c(F)cc(OC3CN(CCCF)C3)cc2F)N1C12CC(C1)C2 [Compound 23, (1R,3R)-2-(bicyclo[1.1.1]pentan-1-yl)-1-(2,6-difluoro-4-((1-(3-fluoropropyl)azetidin-3-yl)oxy)phenyl)-3-methyl-2,3,4,9-tetrahydro-1H-pyrido[3,4-b]indole] | ≥ 7.60
C[C@H]1Cc2c([nH]c3ccccc23)[C@H](c2c(F)cc(O[C@H]3CCN(CCCF)C3)cc2F)N1C12CC(C(N)=O)(C1)C2 (single isomer, unassigned) [Compound 32] | ≤ 6.60
C[C@@H]1Cc2c([nH]c3ccccc23)[C@@H](c2c(F)cc(OCCN3CCCC3)cc2F)N1C12CC(C1)C2 [Compound 26, (1R,3R)-2-(bicyclo[1.1.1]pentan-1-yl)-1-(2,6-difluoro-4-(2-(pyrrolidin-1-yl)ethoxy)phenyl)-3-methyl-2,3,4,9-tetrahydro-1H-pyrido[3,4-b]indole] | ≤ 6.60
C[C@@H]1Cc2c([nH]c3ccccc23)[C@@H](c2ccc(O[C@@H]3CCN(CCCF)C3)nc2)N1C12CC(C1)C2 (single isomer, unassigned) [Compound 9] | 6.60 to 7.60
C[C@@H]1Cc2c([nH]c3ccccc23)[C@@H](c2ncc(NC3CN(CCCF)C3)cc2F)N1C12CC(C1)C2 [Compound 13, 6-((1S,3R)-2-(bicyclo[1.1.1]pentan-1-yl)-3-methyl-2,3,4,9-tetrahydro-1H-pyrido[3,4-b]indol-1-yl)-5-fluoro-N-(1-(3-fluoropropyl)azetidin-3-yl)pyridin-3-amine] | ≥ 7.60
C[C@@H]1Cc2c([nH]c3ccccc23)[C@@H](c2ccc(O[C@H]3CCN(CCCF)C3)cc2)N1C12CC(C1)C2 (single isomer, unassigned) [Compound 8] | ≥ 7.60
C[C@@H]1Cc2c([nH]c3ccccc23)[C@@H](c2ccc(O[C@@H]3CCN(CCCF)C3)cn2)N1C12CC(C1)C2 (single isomer, unassigned) [Compound 11] | ≤ 6.60
C[C@H]1Cc2c([nH]c3ccccc23)[C@H](c2c(F)cc(O[C@@H]3CCN(CCCF)C3)cc2F)N1C12CC(C(N)=O)(C1)C2 (single isomer, unassigned) [Compound 33] | ≤ 6.60
C[C@@H]1Cc2c([nH]c3ccccc23)[C@@H](c2c(F)cc(O[C@@H]3CCN(CCCF)C3)cc2F)N1C12CC(C#N)(C1)C2 (single isomer, unassigned) [Compound 37] | ≥ 7.60
C[C@@H]1Cc2c([nH]c3ccccc23)[C@@H](c2c(F)cc(NC3CN(CCCF)C3)cc2F)N1C12CC(CO)(C1)C2 (single isomer, unassigned) [Compound 18] | ≥ 7.60
C[C@@H]1Cc2c([nH]c3ccccc23)[C@@H](c2ccc(NC3CN(CCCF)C3)cc2)N1C12CC(CF)(C1)C2 (single isomer, unassigned) [Compound 62] | ≤ 6.60

Results, then the compound that gave them:

pIC50 | Structure (SMILES)
≥ 7.60 | C[C@@H]1Cc2c([nH]c3ccccc23)[C@@H](c2ccc(N[C@@H]3CN(CCCF)C[C@@H]3O)cc2)N1C12CC(C1)C2 [Compound 78, (3S,4R)-4-((4-((1R,3R)-2-(bicyclo[1.1.1]pentan-1-yl)-3-methyl-2,3,4,9-tetrahydro-1H-pyrido[3,4-b]indol-1-yl)phenyl)amino)-1-(3-fluoropropyl)pyrrolidin-3-ol]
≥ 7.60 | CCCN1C[C@H](F)[C@H](Nc2ccc([C@@H]3c4[nH]c5ccccc5c4C[C@@H](C)N3C34CC(C3)C4)cc2)C1 (single isomer, unassigned) [Compound 85]
≥ 7.60 | CCCCN1C[C@@H](F)[C@H](Nc2ccc([C@@H]3c4[nH]c5ccccc5c4C[C@@H](C)N3C34CC(C3)C4)cc2)C1 [Compound 84, (3R,4R)—N-(4-((1R,3R)-2-(bicyclo[1.1.1]pentan-1-yl)-3-methyl-2,3,4,9-tetrahydro-1H-pyrido[3,4-b]indol-1-yl)phenyl)-1-butyl-4-fluoropyrrolidin-3-amine]
≤ 6.60 | C[C@H]1Cc2c([nH]c3ccccc23)[C@H](c2c(F)cc(O[C@H]3CCN(CCCF)C3)cc2F)N1C12CC(C#N)(C1)C2 (single isomer, unassigned) [Compound 90]
≥ 7.60 | C[C@]12CC[C@@H]3c4ccc(O)cc4C[C@@H](CCCCCCCCC[S+]([O-])CCCC(F)(F)C(F)(F)F)[C@H]3[C@@H]1CC[C@@H]2O (some centres unmarked) [fulvestrant, reference compound]
≥ 7.60 | C[C@@H]1Cc2c([nH]c3ccccc23)[C@@H](c2ccc(N[C@@H]3CN(CCCF)C[C@H]3O)cc2)N1C12CC(C1)C2 (single isomer, unassigned) [Compound 80]
≤ 6.60 | COc1cc(NC2CN(CCCF)C2)cnc1[C@@H]1c2[nH]c3ccccc3c2C[C@@H](C)N1C12CC(C1)C2 [Compound 94, 6-((1S,3R)-2-(bicyclo[1.1.1]pentan-1-yl)-3-methyl-2,3,4,9-tetrahydro-1H-pyrido[3,4-b]indol-1-yl)-N-(1-(3-fluoropropyl)azetidin-3-yl)-5-methoxypyridin-3-amine]
6.60 to 7.60 | C[C@@H]1Cc2c([nH]c3ccccc23)[C@@H](c2ccc(N[C@H]3CN(CCCF)C[C@@H]3O)cc2)N1C12CC(C1)C2 (single isomer, unassigned) [Compound 79]
≥ 7.60 | C[C@H](F)CN1CC(Nc2ccc([C@@H]3c4[nH]c5ccccc5c4C[C@@H](C)N3C34CC(C3)C4)cc2)C1 (single isomer, unassigned) [Compound 83]
≥ 7.60 | CCCN1C[C@@H](F)[C@H](Nc2ccc([C@@H]3c4[nH]c5ccccc5c4C[C@@H](C)N3C34CC(C3)C4)cc2)C1 [Compound 87, (3R,4R)—N-(4-((1R,3R)-2-(bicyclo[1.1.1]pentan-1-yl)-3-methyl-2,3,4,9-tetrahydro-1H-pyrido[3,4-b]indol-1-yl)phenyl)-4-fluoro-1-propylpyrrolidin-3-amine]
